For nine compounds, IC50 and Ki results are on record in ChEMBL document CHEMBL1909046, “DrugMatrix in vitro pharmacology data”.

The IC50 is the concentration needed to halve the response being measured.

Data set [1] is described as follows: DRUGMATRIX: Glutamate, AMPA radioligand binding (ligand: [3H] AMPA). The data set is classed as cell membranes, Rattus norvegicus, Wistar, Cerebral cortex, Membrane. As to conditions: Not Active = under 50% inhibition at 10 µM.
Data set [2] deals with T1, Alpha-2A adrenergic receptor (Homo sapiens, UniProt P08913).
T1 sequence (P08913 whole entry): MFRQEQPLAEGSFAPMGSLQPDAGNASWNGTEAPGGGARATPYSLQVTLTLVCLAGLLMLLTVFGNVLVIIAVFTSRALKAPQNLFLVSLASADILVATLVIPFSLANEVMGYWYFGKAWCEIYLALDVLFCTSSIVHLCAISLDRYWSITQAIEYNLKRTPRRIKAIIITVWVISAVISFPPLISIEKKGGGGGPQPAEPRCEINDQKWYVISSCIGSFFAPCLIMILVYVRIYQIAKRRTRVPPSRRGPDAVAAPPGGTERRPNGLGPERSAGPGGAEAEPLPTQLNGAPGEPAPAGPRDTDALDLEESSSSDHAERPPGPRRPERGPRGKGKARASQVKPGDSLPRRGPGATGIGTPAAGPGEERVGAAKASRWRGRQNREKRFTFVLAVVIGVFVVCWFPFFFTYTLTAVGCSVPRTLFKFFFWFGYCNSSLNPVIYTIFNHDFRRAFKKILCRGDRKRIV
The data set is classed as cell membranes, Sf9, Membrane. The following applies: sf9.

A short description of data set [3]: DRUGMATRIX: Purinergic P2X radioligand binding (ligand: [3H] alpha, beta-Methylene-ATP). Format: cell membranes, Oryctolagus cuniculus, New Zealand albino, Urinary bladder, Membrane. As to conditions: Not Active = under 50% inhibition at 10 µM.
Data set [4] concerns the target Voltage-gated inwardly rectifying potassium channel KCNH2 (Homo sapiens, UniProt Q12809). As to conditions: hek293. Also: in other assays of this panel Not Active means under 50% inhibition at 10 µM.
Data set [5] deals with Prostaglandin G/H synthase 1 (Homo sapiens, UniProt P23219). Briefly: biochemical. The data set is classed as tissue-based, Platelet.
Data set [6] deals with T2, Muscarinic acetylcholine receptor M5 (Homo sapiens, UniProt P08912).
T2 sequence (P08912 whole entry): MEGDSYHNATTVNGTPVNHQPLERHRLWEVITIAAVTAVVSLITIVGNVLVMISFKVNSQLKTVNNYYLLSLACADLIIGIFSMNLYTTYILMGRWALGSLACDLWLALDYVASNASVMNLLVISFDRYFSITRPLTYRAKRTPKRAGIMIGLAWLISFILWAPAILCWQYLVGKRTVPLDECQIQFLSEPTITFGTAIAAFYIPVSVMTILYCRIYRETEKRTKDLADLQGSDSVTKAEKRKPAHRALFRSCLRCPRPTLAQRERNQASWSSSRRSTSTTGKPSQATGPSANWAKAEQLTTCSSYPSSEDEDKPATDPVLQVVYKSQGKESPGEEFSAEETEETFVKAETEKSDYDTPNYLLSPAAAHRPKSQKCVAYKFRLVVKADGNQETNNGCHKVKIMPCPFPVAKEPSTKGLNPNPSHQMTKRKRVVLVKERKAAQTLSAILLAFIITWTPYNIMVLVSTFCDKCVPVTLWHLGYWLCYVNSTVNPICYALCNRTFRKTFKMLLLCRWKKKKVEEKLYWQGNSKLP
The data set is classed as cell membranes, CHO-K1, Membrane. As to conditions: cho-k1.

Sequence of Prostaglandin G/H synthase 1 (P23219 whole entry): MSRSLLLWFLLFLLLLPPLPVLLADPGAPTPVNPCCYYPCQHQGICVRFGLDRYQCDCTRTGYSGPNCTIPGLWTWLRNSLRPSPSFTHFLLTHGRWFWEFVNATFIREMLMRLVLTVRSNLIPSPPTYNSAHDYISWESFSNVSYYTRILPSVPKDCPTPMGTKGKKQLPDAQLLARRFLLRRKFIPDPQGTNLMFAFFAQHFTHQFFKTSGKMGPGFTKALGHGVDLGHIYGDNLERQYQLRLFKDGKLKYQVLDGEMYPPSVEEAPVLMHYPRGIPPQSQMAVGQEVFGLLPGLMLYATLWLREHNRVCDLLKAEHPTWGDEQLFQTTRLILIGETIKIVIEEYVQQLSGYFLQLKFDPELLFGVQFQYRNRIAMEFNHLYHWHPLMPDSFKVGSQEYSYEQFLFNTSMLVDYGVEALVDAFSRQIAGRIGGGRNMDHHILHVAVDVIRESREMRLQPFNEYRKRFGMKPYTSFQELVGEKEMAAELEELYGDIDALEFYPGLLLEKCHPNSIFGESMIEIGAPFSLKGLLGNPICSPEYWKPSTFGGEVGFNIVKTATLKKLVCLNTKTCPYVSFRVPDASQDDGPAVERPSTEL
Sequence of Voltage-gated inwardly rectifying potassium channel KCNH2 (Q12809 whole entry): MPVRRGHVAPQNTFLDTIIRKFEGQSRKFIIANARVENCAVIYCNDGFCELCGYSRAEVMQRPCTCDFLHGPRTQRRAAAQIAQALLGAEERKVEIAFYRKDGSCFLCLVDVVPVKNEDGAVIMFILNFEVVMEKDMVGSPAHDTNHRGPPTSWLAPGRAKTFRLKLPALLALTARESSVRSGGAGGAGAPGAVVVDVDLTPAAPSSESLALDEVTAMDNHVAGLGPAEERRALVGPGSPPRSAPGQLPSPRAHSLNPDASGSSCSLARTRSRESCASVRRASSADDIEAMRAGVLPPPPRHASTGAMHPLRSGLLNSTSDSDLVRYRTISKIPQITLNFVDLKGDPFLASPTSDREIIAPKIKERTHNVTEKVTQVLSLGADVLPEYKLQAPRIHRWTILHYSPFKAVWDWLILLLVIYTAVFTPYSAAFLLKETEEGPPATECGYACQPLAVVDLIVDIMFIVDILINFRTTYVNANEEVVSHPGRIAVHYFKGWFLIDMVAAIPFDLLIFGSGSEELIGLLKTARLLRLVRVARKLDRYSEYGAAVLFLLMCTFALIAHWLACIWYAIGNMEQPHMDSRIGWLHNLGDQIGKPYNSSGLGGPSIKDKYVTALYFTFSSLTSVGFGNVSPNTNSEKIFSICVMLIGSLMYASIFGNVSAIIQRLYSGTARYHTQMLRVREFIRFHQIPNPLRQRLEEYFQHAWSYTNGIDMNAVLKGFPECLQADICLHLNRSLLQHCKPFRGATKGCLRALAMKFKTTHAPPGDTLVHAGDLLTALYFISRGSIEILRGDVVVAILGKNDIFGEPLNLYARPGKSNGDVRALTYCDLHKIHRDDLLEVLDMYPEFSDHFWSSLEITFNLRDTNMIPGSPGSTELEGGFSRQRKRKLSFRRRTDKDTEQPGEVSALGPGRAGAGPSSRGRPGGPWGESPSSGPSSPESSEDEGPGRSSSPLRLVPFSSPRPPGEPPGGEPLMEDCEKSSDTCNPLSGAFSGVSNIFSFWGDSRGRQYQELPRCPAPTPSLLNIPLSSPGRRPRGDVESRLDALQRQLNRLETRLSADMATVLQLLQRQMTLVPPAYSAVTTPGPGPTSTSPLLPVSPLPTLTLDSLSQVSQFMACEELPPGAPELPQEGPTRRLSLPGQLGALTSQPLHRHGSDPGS

`O=c1[nH]c(=O)n([C@H]2C[C@H](O)[C@@H](CO)O2)cc1I` [IDOXURIDINE]: the IC50 result in data set [1], in data set [2], in data set [3], in data set [4], in data set [5] (platelet) and in data set [6] was “Not Active” in each case. The Ki result in data set [1], in data set [3] and in data set [4] was “Not Active” throughout.

Take `CC1Cc2ccccc2N1NC(=O)c1ccc(Cl)c(S(N)(=O)=O)c1` (stereo unspecified) [INDAPAMIDE]: the IC50 result in data set [1], in data set [2], in data set [3], in data set [4], in data set [5] (platelet) and in data set [6] was “Not Active” in each case. Besides, the Ki entry in data set [1], in data set [3] and in data set [4] was “Not Active” in each case.

As to `Nc1nc(N)nc(-c2cc(Cl)ccc2Cl)n1.O=C(O)/C=C\C(=O)O` [IRSOGLADINE MALEATE], the IC50 entry in data set [1], in data set [2], in data set [3], in data set [4], in data set [5] (platelet) and in data set [6] was “Not Active” each time. The Ki result in data set [1], in data set [3] and in data set [4] was “Not Active” in each case.

Regarding `CCC(C)n1ncn(-c2ccc(N3CCN(c4ccc(OCC5COC(Cn6cncn6)(c6ccc(Cl)cc6Cl)O5)cc4)CC3)cc2)c1=O` (stereo unspecified) [ITRACONAZOLE], the IC50 result in data set [1], in data set [2], in data set [3], in data set [4], in data set [5] (platelet) and in data set [6] was “Not Active” each time. The Ki entry in data set [1], in data set [3] and in data set [4] was “Not Active” each time.

Turning to `CCCCN1CCCC[C@H]1C(=O)Nc1c(C)cccc1C` [LEVOBUPIVACAINE], the half-inhibitory concentration (IC50) entry in data set [1], in data set [2], in data set [3], in data set [4], in data set [5] (platelet) and in data set [6] was “Not Active” throughout. The Ki result in data set [1], in data set [3] and in data set [4] was “Not Active” in each case.

Turning to `CCCCc1nc(Cl)c(CO)n1Cc1ccc(-c2ccccc2-c2nnn[nH]2)cc1` [LOSARTAN], the IC50 result in data set [1], in data set [2], in data set [3], in data set [4], in data set [5] (platelet) and in data set [6] was “Not Active” in each case. The Ki result in data set [1], in data set [3] and in data set [4] was “Not Active” each time.

As for `Sc1ncnc2nc[nH]c12` [MERCAPTOPURINE ANHYDROUS], the IC50 result in data set [1] was “Not Active”; in data set [2], “Not Active”; in data set [3] it was “Not Active”; in data set [4], “Not Active”; in data set [5] (read-out: IC50) it was 16.2 µM; in data set [6] it was “Not Active”. In addition, the Ki entry in data set [1], in data set [3] and in data set [4] was “Not Active” in each case.

Regarding `C[C@](N)(Cc1ccc(O)c(O)c1)C(=O)O` [METHYLDOPA], the IC50 entry in data set [1], in data set [2], in data set [3], in data set [4], in data set [5] (platelet) and in data set [6] was “Not Active” each time. For the same compound, the Ki result in data set [1], in data set [3] and in data set [4] was “Not Active” throughout.

`C[C@]12CCC(=O)C=C1CC[C@@H]1[C@@H]2CC[C@@]2(C)[C@H]1CC[C@]2(C)O` [METHYLTESTOSTERONE]: the IC50 entry in data set [1], in data set [2], in data set [3], in data set [4], in data set [5] (platelet) and in data set [6] was “Not Active” in each case. For the same compound, the Ki result in data set [1], in data set [3] and in data set [4] was “Not Active” in each case.
